US20230407243A1, “GENETIC PLATFORM TO INVESTIGATE THE FUNCTIONS OF BACTERIAL DRUG EFFLUX PUMPS” (priority 2022, published 2023)
Where two headings read alike, the source gives them in different places.

Assays:
Format in all cases: cell-based, Escherichia coli
E. coli EKO-35 = assay: microbe, parasite or virus in culture; details: Escherichia coli, EKO35, technical duplicate
Description: (§1) Single colonies were used to inoculate 3 mL of LB followed by incubation at 37° C. for 18 h with aeration at 220 rpm. The bacterial cells were harvested by centrifugation and resuspended in phosphate buffered saline (PBS) ([pH 7.4], 137 mM NaCl (Bioshop), 2.7 mM KCl (Bioshop), 10 mM Na2PO4 (Bioshop) and 1.8 mM K2PO4) to an OD600 nm˜1.0, followed by 1/2000 dilution into MHB II.
(§2) To a 384-well microtiter plate (Corning, untreated polystyrene), 500 nL of compound was dispensed, in duplicate, and serially titrated 2-fold using an Echo 550 acoustic liquid dispenser (Labcyte Inc.). […] As a solvent control, 500 nL of DMSO was applied to wells that contained no compound. Using a multichannel pipette, 50 μL of the prepared bacterial inoculum was applied to each well. To enable background correction post-incubation, the OD600 nm was measured (Biotek Synergy Neo2 microplate reader) prior to incubation. The plates were incubated at 37° C. with aeration at 900 rpm for 18 h. The plates were equilibrated to room temperature and the OD600 nm measured using a BioTek Synergy Neo2 microplate reader. Data was analyzed in both Prism (GraphPad, Version 9.2.0) and Microsoft Excel (Version 16.53). Raw data were input into Microsoft Excel and the pre-incubation OD600 nm measurements were subtracted from the post-incubation OD600 nm measurements. These corrected measurements were input into Prism 9 as a grouped analysis. […] All other MIC values were adjusted accordingly and visualized using the single-color scale grouped heat map function. Identification of compound chemical properties was achieved using DataWarrior (Version 5.5.0). Using PubChem, the SMILES chemical notation for each compound was obtained and compiled in Microsoft Excel. The resulting spreadsheet was input into DataWarrior and properties were calculated from the compound chemical structures.

E. coli ΔtolC = assay: microbe, parasite or virus in culture
Description: as §1, §2

[1] = tested on: wild-type E. coli K-12 str. BW25113; assay: microbe, parasite or virus in culture; details: Escherichia coli, BW25113, technical duplicate
Description: as §1, §2

EKO-35 araC::acrB = assay: MIC susceptibility profiling, efflux platform; details: Escherichia coli; Table 13A; non-porinated; technical duplicate; read-out: Minimum Inhibitory Concentration, EKO-35 araC::acrB
Description: as §1, §2

EKO-35 araC::acrEF = assay: MIC susceptibility profiling, efflux platform; details: Escherichia coli; Table 13A; non-porinated; technical duplicate; read-out: Minimum Inhibitory Concentration, EKO-35 araC::acrEF
Description: as §1, §2

[2] = tested on: EKO-35 araC::mexCD (MexCD from P. aeruginosa); assay: MIC susceptibility profiling, efflux platform; details: Table 13B; non-porinated; technical duplicate; read-out: Minimum Inhibitory Concentration, EKO-35 araC::mexCD
Description: as §1, §2

wild-type (WT) K-12-Pore = assay: microbe, parasite or virus in culture; details: Escherichia coli, technical duplicate
Description: (§3) For genomic integration of the pore, the fhuA ΔC/Δ4L gene and the adjacent gentamicin resistance cassette were amplified using a high-fidelity polymerase and the fhuA_40_Up/gImS_3680_Low primers (Table 4). Integration of the pore gene was performed as described above. The pore gene was introduced into the intergenic region between the glmS and pstS genes, with gene expression under the control of a constitutive promoter (Kearse, M. et al., 2012). Genomic integrations were verified using PCR (Primers: pstS_520_Up/glmS_3680_Low, Table 4). Successful integrations were transformed with pCP20 to remove the gentamicin resistance cassette as previously described. Activity of the pore was confirmed through susceptibility testing with the large antibiotic vancomycin prior to phenotypic profiling and further susceptibility testing.
as §1, §2

ΔtolC-Pore = assay: microbe, parasite or virus in culture
Description: as §3, §1, §2

EKO-35-Pore = assay: MIC susceptibility profiling, porinated strain; details: Escherichia coli, technical duplicate
Description: as §3, §1, §2

EKO-35 araC::acrB Pore = assay: MIC susceptibility profiling, porinated efflux platform; details: Escherichia coli; Table 14A; porinated; technical duplicate; read-out: Minimum inhibitory concentration, EKO-35 araC::acrB Pore
Description: as §3, §1, §2

[3] = tested on: EKO-35 araC::acrBD408A Pore; assay: as above; details: Escherichia coli; EKO-35 araC::acrBD408A Pore; technical duplicate; read-out: Minimum inhibitory concentration
Description: as §3, §1, §2

EKO-35 araC::acrD Pore = assay: as above; details: Escherichia coli; Table 14A; porinated; technical duplicate; read-out: Minimum inhibitory concentration, EKO-35 araC::acrD Pore
Description: as §3, §1, §2

EKO-35 araC::acrEF Pore = assay: as above; details: Escherichia coli; Table 14A; porinated; technical duplicate; read-out: Minimum inhibitory concentration, EKO-35 araC::acrEF Pore
Description: as §3, §1, §2

EKO-35 araC::emrKY Pore = assay: as above; details: Escherichia coli; EKO-35 araC::emrKY Pore; technical duplicate; read-out: Minimum inhibitory concentration
Description: as §3, §1, §2

EKO-35 araC::macAB Pore = assay: as above; details: Escherichia coli; EKO-35 araC::macAB Pore; technical duplicate; read-out: Minimum inhibitory concentration
Description: as §3, §1, §2

EKO-35 araC::mdtBC Pore = assay: as above; details: Escherichia coli; EKO-35 araC::mdtBC Pore; technical duplicate; read-out: Minimum inhibitory concentration
Description: as §3, §1, §2

EKO-35 araC::mdtEF Pore = assay: as above; details: Escherichia coli; Table 14A; porinated; technical duplicate; read-out: Minimum inhibitory concentration, EKO-35 araC::mdtEF Pore
Description: as §3, §1, §2

O=C(O)c1cn(C2CC2)c2cc(N3CCNCC3)c(F)cc2c1=O [ciprofloxacin]
MIC (E. coli EKO-35; Table 10, without pore, read-out: Minimum inhibitory concentration (MIC), EKO-35): 5 ng/mL
MIC (E. coli EKO-35; Table 13A, non-porinated, read-out: Minimum Inhibitory Concentration, EKO-35): 5 ng/mL
MIC (E. coli ΔtolC; Escherichia coli, 18 h, read-out: Minimum Inhibitory Concentration, ΔtolC): 5 ng/mL
Minimum inhibitory concentration (MIC), ΔtolC (E. coli ΔtolC; Table 10, without pore, technical duplicate): 5 ng/mL
MIC ([1]; Table 10, without pore, read-out: Minimum inhibitory concentration (MIC), K-12): 0.01 µg/mL
MIC ([1]; Table 13A, non-porinated, read-out: Minimum Inhibitory Concentration, K-12): 0.01 µg/mL
MIC (EKO-35 araC::acrB): 0.02 µg/mL
MIC (EKO-35 araC::acrEF): 0.02 µg/mL
MIC [2]: 0.01 µg/mL
MIC (wild-type (WT) K-12-Pore; Table 10, with pore, read-out: Minimum inhibitory concentration (MIC), Pore K-12): 5 ng/mL
MIC (wild-type (WT) K-12-Pore; Table 14A, porinated, read-out: Minimum inhibitory concentration, K-12 (WT)-Pore): 5 ng/mL
MIC (ΔtolC-Pore; Escherichia coli, 18 h, read-out: Minimum inhibitory concentration, ΔtolC-Pore): 2 ng/mL
Minimum inhibitory concentration (MIC), Pore ΔtolC (ΔtolC-Pore; Table 10, with pore, technical duplicate): 2 ng/mL
MIC (EKO-35-Pore; Table 10, with pore, read-out: Minimum inhibitory concentration (MIC), Pore EKO-35): 2 ng/mL
MIC (EKO-35-Pore; Table 14A, porinated, read-out: Minimum inhibitory concentration, EKO-35-Pore): 2 ng/mL
MIC (EKO-35 araC::acrB Pore): 9 ng/mL
MIC [3]: 2 ng/mL
MIC (EKO-35 araC::acrD Pore): 2 ng/mL
MIC (EKO-35 araC::acrEF Pore): 0.01 µg/mL
MIC (EKO-35 araC::emrKY Pore): 2 ng/mL
MIC (EKO-35 araC::macAB Pore): 2 ng/mL
MIC (EKO-35 araC::mdtBC Pore): 2 ng/mL
MIC (EKO-35 araC::mdtEF Pore): 2 ng/mL
